According to patent publication US11542304B2, “Multimeric bicyclic peptide ligands” (BicycleTx Limited, priority 2018, dated 2023):
Starred links: 1 amine or outer side, 2 acyl side, 3 side chain; linkers in the order of their positions; H or OH if unused. Positions of bridges follow the written chain, without caps; N, C: chain ends. Non-standard residues stand in square brackets, D forms with d. Chains are numbered I, II in the order given. X2 = O=C(CCOCCN(CCOCCC(=O)NCCOCCOCCOCCOCCOCCOCCOCCOCCOCCOCCOCCOCCOCCOCCOCCOCCOCCOCCOCCOCCOCCOCCOCCn1nnc2c1CCC1C(CC2)C1COC(=O)[*:2])CCOCCC(=O)NCCOCCOCCOCCOCCOCCOCCOCCOCCOCCOCCOCCOCCOCCOCCOCCOCCOCCOCCOCCOCCOCCOCCOCCn1nnc2c1CCC1C(CC2)C1COC(=O)[*:3])NCCOCCOCCOCCOCCOCCOCCOCCOCCOCCOCCOCCOCCOCCOCCOCCOCCOCCOCCOCCOCCOCCOCCOCCn1nnc2c1CCC1C(CC2)C1COC(=O)[*:1]; X3 = O=C(CCOCCN(CCOCCC(=O)NCCOCCOCCOCCOCCOCCOCCOCCOCCOCCOCCn1nnc2c1CCC1C(CC2)C1COC(=O)[*:2])CCOCCC(=O)NCCOCCOCCOCCOCCOCCOCCOCCOCCOCCOCCn1nnc2c1CCC1C(CC2)C1COC(=O)[*:3])NCCOCCOCCOCCOCCOCCOCCOCCOCCOCCOCCn1nnc2c1CCC1C(CC2)C1COC(=O)[*:1]; TATA = O=C(CC[*:1])N1CN(C(=O)CC[*:2])CN(C(=O)CC[*:3])C1; Nle = CCCC[C@H](N)C(=O)O

Target: CD137 (Homo sapiens, UniProt Q07011)
Sequence (Q07011 24-255): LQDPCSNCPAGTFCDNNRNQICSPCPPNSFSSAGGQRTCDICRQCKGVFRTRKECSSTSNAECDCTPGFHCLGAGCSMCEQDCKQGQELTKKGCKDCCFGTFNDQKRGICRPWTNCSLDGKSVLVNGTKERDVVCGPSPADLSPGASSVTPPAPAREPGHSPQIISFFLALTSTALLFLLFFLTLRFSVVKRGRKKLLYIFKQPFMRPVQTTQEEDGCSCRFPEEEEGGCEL
Assay: CD137 Promega reporter cell activity assay (NF-κB luciferase in Jurkat cells)
Details: for Average Fold EC50 Improvement relative to CD137L: Average EC50 for CD137L = 14.2 nM; for Average Relative Fold Induction relative to CD137L: Average fold induction for CD137L = 4.0

Molecule | Average Fold EC50 Improvement relative to CD137L | Average Relative Fold Induction relative to CD137L | EC50 (read-out: Average EC50, reference substance of Table 4A / 4B) | Average fold induction (reference substance of Table 4A / 4B)
CC[C@H](C)[C@@H]1NC(=O)[C@@H](NC(=O)[C@H](C)NC(C)=O)CSCCC(=O)N2CN3CN(C2)C(=O)CCSC[C@H](NC(=O)[C@H](Cc2ccc(O)cc2)NC(=O)[C@H](CCC(N)=O)NC(=O)CNC(=O)[C@H](CCC(=O)O)NC(=O)[C@H](CCC(=O)O)NC1=O)C(=O)N[C@@H](Cc1ccccc1)C(=O)N[C@@H](C)C(=O)N[C@@H](CC(=O)O)C(=O)N1CCC[C@H]1C(=O)N[C@@H](Cc1ccc(O)cc1)C(=O)N[C@@H](CCCCNC(=O)OCC1C2CCc4nnn(CCOCCOCCOCCOCCOCCOCCOCCOCCOCCOCCNC(=O)CCOCCN(CCOCCC(=O)NCCOCCOCCOCCOCCOCCOCCOCCOCCOCCOCCn5nnc6c5CCC5C(CC6)C5COC(=O)NCCCC[C@@H]5NC(=O)[C@H](Cc6ccc(O)cc6)NC(=O)[C@@H]6CCCN6C(=O)[C@H](CC(=O)O)NC(=O)[C@H](C)NC(=O)[C@H](Cc6ccccc6)NC(=O)[C@@H]6CSCCC(=O)N7CN(CN(C7)C(=O)CCSC[C@@H](C(=O)N[C@@H](C)C(N)=O)NC5=O)C(=O)CCSC[C@H](NC(=O)[C@H](C)NC(C)=O)C(=O)N[C@@H]([C@@H](C)CC)C(=O)N[C@@H](CCC(=O)O)C(=O)N[C@@H](CCC(=O)O)C(=O)NCC(=O)N[C@@H](CCC(N)=O)C(=O)N[C@@H](Cc5ccc(O)cc5)C(=O)N6)CCOCCC(=O)NCCOCCOCCOCCOCCOCCOCCOCCOCCOCCOCCn5nnc6c5CCC5C(CC6)C5COC(=O)NCCCC[C@@H]5NC(=O)[C@H](Cc6ccc(O)cc6)NC(=O)[C@@H]6CCCN6C(=O)[C@H](CC(=O)O)NC(=O)[C@H](C)NC(=O)[C@H](Cc6ccccc6)NC(=O)[C@@H]6CSCCC(=O)N7CN(CN(C7)C(=O)CCSC[C@@H](C(=O)N[C@@H](C)C(N)=O)NC5=O)C(=O)CCSC[C@H](NC(=O)[C@H](C)NC(C)=O)C(=O)N[C@@H]([C@@H](C)CC)C(=O)N[C@@H](CCC(=O)O)C(=O)N[C@@H](CCC(=O)O)C(=O)NCC(=O)N[C@@H](CCC(N)=O)C(=O)N[C@@H](Cc5ccc(O)cc5)C(=O)N6)c4CCC21)C(=O)N[C@H](C(=O)N[C@@H](C)C(N)=O)CSCCC3=O (stereo partly drawn) [BCY8106] | 1.26 | 0.94 |  | 
CC[C@H](C)[C@@H]1NC(=O)[C@@H](NC(=O)[C@H](C)NC(C)=O)CSCCC(=O)N2CN3CN(C2)C(=O)CCSC[C@H](NC(=O)[C@H](Cc2ccc(O)cc2)NC(=O)[C@H](CCC(N)=O)NC(=O)CNC(=O)[C@H](CCC(=O)O)NC(=O)[C@H](CCC(=O)O)NC1=O)C(=O)N[C@@H](Cc1ccccc1)C(=O)N[C@@H](C)C(=O)N[C@@H](CC(=O)O)C(=O)N1CCC[C@H]1C(=O)N[C@@H](Cc1ccc(O)cc1)C(=O)N[C@@H](CCCCNC(=O)OCC1C2CCc4nnn(CCOCCOCCOCCOCCOCCOCCOCCOCCOCCOCCNC(=O)CCOCC(COCCC(=O)NCCOCCOCCOCCOCCOCCOCCOCCOCCOCCOCCn5nnc6c5CCC5C(CC6)C5COC(=O)NCCCC[C@@H]5NC(=O)[C@H](Cc6ccc(O)cc6)NC(=O)[C@@H]6CCCN6C(=O)[C@H](CC(=O)O)NC(=O)[C@H](C)NC(=O)[C@H](Cc6ccccc6)NC(=O)[C@@H]6CSCCC(=O)N7CN(CN(C7)C(=O)CCSC[C@@H](C(=O)N[C@@H](C)C(N)=O)NC5=O)C(=O)CCSC[C@H](NC(=O)[C@H](C)NC(C)=O)C(=O)N[C@@H]([C@@H](C)CC)C(=O)N[C@@H](CCC(=O)O)C(=O)N[C@@H](CCC(=O)O)C(=O)NCC(=O)N[C@@H](CCC(N)=O)C(=O)N[C@@H](Cc5ccc(O)cc5)C(=O)N6)(COCCC(=O)NCCOCCOCCOCCOCCOCCOCCOCCOCCOCCOCCn5nnc6c5CCC5C(CC6)C5COC(=O)NCCCC[C@@H]5NC(=O)[C@H](Cc6ccc(O)cc6)NC(=O)[C@@H]6CCCN6C(=O)[C@H](CC(=O)O)NC(=O)[C@H](C)NC(=O)[C@H](Cc6ccccc6)NC(=O)[C@@H]6CSCCC(=O)N7CN(CN(C7)C(=O)CCSC[C@@H](C(=O)N[C@@H](C)C(N)=O)NC5=O)C(=O)CCSC[C@H](NC(=O)[C@H](C)NC(C)=O)C(=O)N[C@@H]([C@@H](C)CC)C(=O)N[C@@H](CCC(=O)O)C(=O)N[C@@H](CCC(=O)O)C(=O)NCC(=O)N[C@@H](CCC(N)=O)C(=O)N[C@@H](Cc5ccc(O)cc5)C(=O)N6)COCCC(=O)NCCOCCOCCOCCOCCOCCOCCOCCOCCOCCOCCn5nnc6c5CCC5C(CC6)C5COC(=O)NCCCC[C@@H]5NC(=O)[C@H](Cc6ccc(O)cc6)NC(=O)[C@@H]6CCCN6C(=O)[C@H](CC(=O)O)NC(=O)[C@H](C)NC(=O)[C@H](Cc6ccccc6)NC(=O)[C@@H]6CSCCC(=O)N7CN(CN(C7)C(=O)CCSC[C@@H](C(=O)N[C@@H](C)C(N)=O)NC5=O)C(=O)CCSC[C@H](NC(=O)[C@H](C)NC(C)=O)C(=O)N[C@@H]([C@@H](C)CC)C(=O)N[C@@H](CCC(=O)O)C(=O)N[C@@H](CCC(=O)O)C(=O)NCC(=O)N[C@@H](CCC(N)=O)C(=O)N[C@@H](Cc5ccc(O)cc5)C(=O)N6)c4CCC21)C(=O)N[C@H](C(=O)N[C@@H](C)C(N)=O)CSCCC3=O (stereo partly drawn) [BCY8108] | 34.03 | 0.79 |  | 
CD137L: the natural ligand (CD137L) for activation of CD137 |  |  | 14.2 nM | **Average fold induction for CD137L = 4.0
I: Ac-ACIEEGKYCFADPY[Nle]CA-NH2 / II: Ac-ACIEEGKYCFADPY[Nle]CA-NH2 / III: Ac-ACIEEGKYCFADPY[Nle]CA-NH2 (linker I:2-I:9-I:16, II:2-II:9-II:16, III:2-III:9-III:16 via TATA; linker I:7-II:7-III:7 via X3) [BCY8151] | 213.05 | 0.49 |  | 
CCCC[C@@H]1NC(=O)[C@H](Cc2ccc(O)cc2)NC(=O)[C@@H]2CCCN2C(=O)[C@H](CC(=O)O)NC(=O)[C@H](C)NC(=O)[C@H](Cc2ccccc2)NC(=O)[C@@H]2CSCCC(=O)N3CN(CN(C3)C(=O)CCSC[C@@H](C(=O)N[C@@H](C)C(N)=O)NC1=O)C(=O)CCSC[C@H](NC(=O)[C@H](C)NC(C)=O)C(=O)N[C@@H]([C@@H](C)CC)C(=O)N[C@@H](CCC(=O)O)C(=O)N[C@@H](CCC(=O)O)C(=O)N[C@H](CCCCNC(=O)OCC1C3CCc4nnn(CCOCCOCCOCCOCCOCCOCCOCCOCCOCCOCCOCCOCCOCCOCCOCCOCCOCCOCCOCCOCCOCCOCCOCCNC(=O)CCOCCN(CCOCCC(=O)NCCOCCOCCOCCOCCOCCOCCOCCOCCOCCOCCOCCOCCOCCOCCOCCOCCOCCOCCOCCOCCOCCOCCOCCn5nnc6c5CCC5C(CC6)C5COC(=O)NCCCC[C@H]5NC(=O)[C@H](CCC(=O)O)NC(=O)[C@H](CCC(=O)O)NC(=O)[C@H]([C@@H](C)CC)NC(=O)[C@@H](NC(=O)[C@H](C)NC(C)=O)CSCCC(=O)N6CN7CN(C6)C(=O)CCSC[C@H](NC(=O)[C@H](Cc6ccc(O)cc6)NC(=O)[C@H](CCC(N)=O)NC5=O)C(=O)N[C@@H](Cc5ccccc5)C(=O)N[C@@H](C)C(=O)N[C@@H](CC(=O)O)C(=O)N5CCC[C@H]5C(=O)N[C@@H](Cc5ccc(O)cc5)C(=O)N[C@@H](CCCC)C(=O)N[C@H](C(=O)N[C@@H](C)C(N)=O)CSCCC7=O)CCOCCC(=O)NCCOCCOCCOCCOCCOCCOCCOCCOCCOCCOCCOCCOCCOCCOCCOCCOCCOCCOCCOCCOCCOCCOCCOCCn5nnc6c5CCC5C(CC6)C5COC(=O)NCCCC[C@H]5NC(=O)[C@H](CCC(=O)O)NC(=O)[C@H](CCC(=O)O)NC(=O)[C@H]([C@@H](C)CC)NC(=O)[C@@H](NC(=O)[C@H](C)NC(C)=O)CSCCC(=O)N6CN7CN(C6)C(=O)CCSC[C@H](NC(=O)[C@H](Cc6ccc(O)cc6)NC(=O)[C@H](CCC(N)=O)NC5=O)C(=O)N[C@@H](Cc5ccccc5)C(=O)N[C@@H](C)C(=O)N[C@@H](CC(=O)O)C(=O)N5CCC[C@H]5C(=O)N[C@@H](Cc5ccc(O)cc5)C(=O)N[C@@H](CCCC)C(=O)N[C@H](C(=O)N[C@@H](C)C(N)=O)CSCCC7=O)c4CCC31)C(=O)N[C@@H](CCC(N)=O)C(=O)N[C@@H](Cc1ccc(O)cc1)C(=O)N2 (stereo partly drawn) [BCY8103] | 188.34 | 0.91 |  | 
I: Ac-ACIEEGQYCKADPY[Nle]CA-NH2 / II: Ac-ACIEEGQYCKADPY[Nle]CA-NH2 / III: Ac-ACIEEGQYCKADPY[Nle]CA-NH2 (linker I:2-I:9-I:16, II:2-II:9-II:16, III:2-III:9-III:16 via TATA; linker I:10-II:10-III:10 via X2) [BCY8146] | 5.11 | 0.83 |  | 
